“And” between values parts separate entries of the source, which are not always exact repeats. Equal values may be shown once.
Columns and labels:
Assay type in all cases: functional
[1] = species: Mus musculus; assay: Mean survival time of mice against Japanese encephalitis virus was determined
[2] = species: Mus musculus; assay: Mean survival time of mice against forest virus was determined
[3] = system: Mus musculus; assay: Percent survival of mice against Japanese encephalitis virus after 10 mg/Kg peroral administration of compound; settings: po
[4] = system: Mus musculus; assay: Percent survival of mice against Japanese encephalitis virus after 5 mg/Kg peroral administration of the compound.; settings: po
[5] = system: Mus musculus; assay: Percent survival of mice against forest virus after 10 mg/Kg peroral administration of compound; settings: po
[6] = system: Mus musculus; assay: Percent survival of mice against forest virus after 5 mg/Kg peroral administration of compound; settings: po

Nc1ncnc2c1ncn2C1OC2COC2C1O (stereo unspecified)
MST [1]: 10.7 days and 15.5 days
MST [2]: 11.6 days and 11.8 days
survival at 10 mg/kg [3]: 67%
survival at 5 mg/kg [4]: 37%
survival at 10 mg/kg [5]: 50%
survival at 5 mg/kg [6]: 37%

Source: ChEMBL document CHEMBL1126490, “An unusual oxetane nucleoside as a potent antiviral agent” (1993)
